Laboratory results from patent US11827897B2, “Agricultural compositions and related methods” (Flagship Pioneering Innovations VI, LLC, priority 2018, dated 2023).
Where a SMILES comes first, the peptide text is derived from it.

Assays:
[1] = test system: BMS cell growth; assay: Cytotoxicity assay for concentrations not affecting apparent BMS cell growth; type: cell-based, Zea mays
Description: (§1) To determine the effect of the flagellin peptide flg22 ([…] (SEQ ID NO: 14) (AnaSpec AS-62633) on PMP production by Zea mays BMS cells, 200 mL of BMS cell culture were prepared as described above. A cytotoxicity assay was carried out to determine the range of concentrations of flg22 that would not affect apparent BMS cell growth, and the flg22 concentration of 1 μM was determined to be compatible with cell growth. 30 mL of BMS cell suspension was distributed in individual 125 mL conical culture vented-flasks. In parallel, 89.55 mL of fresh media was mixed with 450 μL of 400 μM flg22 peptide suspension prepared in ultrapure sterile water to a final concentration of 2 μM. For the control conditions, 450 μL of ultrapure sterile water was added instead of flg22. Then, 30 mL of the media/flg22 or media/water mix was added to each flask containing 30 mL cell suspension (1:1 v/v) to a flg22 final concentration of 1 μM. Biological triplicates were performed for both flg22 treatment and control conditions. Control cells and cells treated with flg22 were grown at 24° C. with agitation (110 rpm) for 96 hours.
To determine the effect of salicylic acid (SA) on PMP production by Zea mays BMS cells, 200 mL of BMS cell culture were prepared as described above. […] 30 mL of BMS cell suspension was distributed into individual 125 mL conical culture vented-flasks. […]

[2] = test system: tomato plants grown in hydroponic culture; assay: PMP production by tomato plants grown in hydroponic culture after salicylic acid treatment; type: in vivo, Solanum lycopersicum
Description: Seeds of tomato (Solanum lycopersicum) cultivar Moneymaker were sterilized as follows: 70% ethanol for 3 min, 50% household bleach with 0.1% Triton X-100 (Sigma) for 20 min, washed three times with sterile deionized water. Sterilized seeds were germinated on moistened filter paper (Whatman®) in sterile Petri dishes sealed with medical tape (3M) and placed in a plant growth incubator (16 hr light, 23 C/21 C day/night) for seven days. Clear, square, pre-sterilized plastic containers (PhytoTech Labs) were assembled into hydroponic containers similar to what was previously described (Alatorre-Cobos et al., BMC Plant Biol., 14: Article No.: 69, 2014; FIG. 8A). Two containers were cut with sterile scalpels to assemble a support for a sterile polytetrafluoroethylene (PTFE) plastic mesh (McMaster-Carr). Plastic mesh was fixed to plastic supports with sterile staples. Small openings were cut into the plastic mesh and germinated seedlings threaded through the openings using sterile forceps. Each mesh supported five seedlings. 200 mL 1×MS growth medium (Murashige & Skoog basal salt mixture (Sigma) 4.3 g/L, sucrose 10 g/L, MES (Sigma) 0.5 g/L, pH 5.8 adjusted with KOH) was added to a whole plastic container serving as the base. Plastic support with mesh and threaded seedlings was placed into the base container. A second whole plastic container with a cut 2 cm^2 opening and sealed with medical tape was used as the lid. The two halves were sealed with medical tape and the containers transferred to a plant incubator (16 hr light, 23° C./21° C. day/night) for three weeks. […]
Culture medium (180 mL per container) was collected and centrifuged at 4,000×g for 30 min to pellet debris. […] Pellets were resuspended in 200 μL 1×PBS, pH 7.4 and analyzed using nano flow-cytometry (NanoFCM). PMP concentration (treatment: 4.06×10^11±1.41×10^11 PMP/mL (SEM); control: 5.44×10^10±2.49×10^10 PMP/mL (SEM)) and PMP size (treatment: 97±25 nm (SD); control: 82±27 nm (SD)) were determined by NanoFCM using concentration and size standards provided by the manufacturer (FIG. 8B).

[3] = test system: Zea mays BMS cells; assay: PMP production by Zea mays BMS cell culture after elicitation (NanoFCM); type: cell-based; conditions: 100 μM salicylic acid, 96 hours
Description: Zea mays, Black Mexican Sweet (BMS) cells were purchased from the ABRC. BMS cells were grown in Murashige and Skoog basal medium pH 5.8, containing 4.3 g/L Murashige and Skoog Basal Salt Mixture (Sigma M5524), 2% sucrose (S0389, Millipore Sigma), 2 mg/L 2,4-dichlorophenoxyacetic acid (D7299, Millipore Sigma), 250 ug/L thiamine HCL (V-014, Millipore Sigma) and a 1× MS vitamin mix solution in ddH2O. The 1× vitamin mix solution contained niacin (N0761-100G, Millipore Sigma), pyroxidine hydrochloride (P6280-25G, Millipore Sigma), D-pantothenic acid hemicalcium salt (P5155-100G, Millipore Sigma), L-Asparagine (A4159-25G, Millipore Sigma), and myo-inositol (17508-100G, Millipore Sigma) at respective final concentrations of 1.3 mg/L, 250 μg/L, 250 μg/L, 130 mg/L, and 200 mg/L. Cells were grown in 1 L vented conical sterile flasks in dark conditions at 24° C. with agitation (110 rpm). For experiments, BMS cells were grown until cells were at a packed cell volume (PCV) of 20%. The PCV estimates cell density and is defined as the volume of cells divided by the total volume of the cell culture aliquot. The Packed Cell Volume is expressed as a percentage. The PCV was determined as follows: 5 mL of BMS cell suspension was centrifuged for 5 min at 3900 rpm, and the volume of the cell pellet was determined.
as §1, with “Then, 30 mL of the media/flg22 or media/water mix was added to each flask containing 30 mL cell suspension (1:1 v/v) to a flg22 final concentration of 1 μM. Biological triplicates were performed for both flg22 treatment and control conditions. Control cells and cells treated with flg22 were grown at 24° C. with agitation (110 rpm) for 96 hours.” left out

Compound | concentration compatible with cell growth ([1]; Zea mays BMS cells) | PMP size ([2]; 1 mM salicylic acid for three days, ± SD, control 82±27 nm) | effect on secretion of PMPs from the plant roots ([2]; hydroponically grown tomato, 1 mM salicylic acid) | PMP concentration ([2]; three-week-old tomato plants, 1 mM salicylic acid for three days, ± SEM, n=2, DMSO control 5.44×10^10±2.49×10^10) | concentration compatible with cell growth ([1]; Zea mays) | effect on production of PMPs by BMS cells in culture [3] | PMP concentration ([3]; BMS cells, average of triplicates, DMSO control 1.47×10^11 PMP/mL) | mean PMP size ([3]; BMS cells, control 87±15 nm)
CC[C@H](C)[C@H](NC(=O)[C@H](CCC(N)=O)NC(=O)[C@H](CC(C)C)NC(=O)CNC(=O)[C@H](C)NC(=O)[C@H](C)NC(=O)[C@H](CC(=O)O)NC(=O)[C@H](CC(=O)O)NC(=O)[C@H](CCCCN)NC(=O)[C@H](C)NC(=O)[C@H](CO)NC(=O)[C@H](CC(N)=O)NC(=O)[C@@H](NC(=O)[C@H](CCCNC(=N)N)NC(=O)[C@H](CO)NC(=O)CNC(=O)[C@@H](NC(=O)[C@H](CO)NC(=O)[C@H](CC(C)C)NC(=O)[C@H](CCCNC(=N)N)NC(=O)[C@@H](N)CCC(N)=O)[C@@H](C)O)[C@@H](C)CC)C(=O)N[C@@H](C)C(=O)O [flg22] (H-QRLSTGSRINSAKDDAAGLQIA-OH) | 1 µM |  |  |  |  |  |  | 
O=C(O)c1ccccc1O [salicylic acid] |  | 97±25 nm | enhance secretion of PMPs from the plant roots | 4.06×10^11±1.41×10^11 PMP/mL | 100 µM | stimulates the production of PMPs | 1.84×10^11 PMP/mL | 86.5±15 nm
